# Several values for one entry are separate records, joined by “and”; a condition that tells them apart may be missing. Equal entries are not always repeated.
# Assays:
# Assay type in all cases: cell-based, human
# [1] = system: co-spheroidal culture DPF-ORSK; test: Morphological evaluation of proto-follicle microtissues by H&E staining; conditions: Inositol 0.5%, Inositol 0.25% + L-arginine 0.25%
# Procedure: (§1) The reconstituted proto-follicle was obtained by using fibroblast cells and human keratinocytes using the Gravity^PLUS™ method, a system developed by InSphero (InSphero AG, Zurich, Switzerland), which allows the formation of spheroids or micro-tissues of homogeneous size using the hanging drops technology. The micro-tissues were transferred to Gravity^TRAP plates for treatment and control of culture conditions: 37 °C incubator, 5% CO2, suitably saturated atmosphere of the culture medium.
# (§2) In order to assess the biological effect of each of the above compositions on the micro-tissue cultures in question, the following parameters were measured: • Quantification of ATP, as a marker of cell viability. • Morphological evaluation during culture of the proto-follicle, by staining with hematoxylin-eosin (H&E). • Immunohistochemical evaluation of Cytokeratin 6 (CK6), wherein CK6 is a keratin type II present in the skin and the hair follicle, which has an important role in the formation of the intermediate filament and is involved in tissue remodeling during stress phenomena.
# (§3) In order to observe the short- and long-term effect of the compositions mentioned above, the evaluation of the above parameters was made at 24H (T2) and 120H (T6) after the beginning of therapy.
# Cytokeratin 6 (CK6) = test: Immunohistochemical evaluation of cytokeratin 6 in proto-follicle microtissues; conditions: Inositol 0.5%, Inositol 0.25% + L-arginine 0.25%, Cyclosporin A 10 ng/mL; result in words
# Procedure: as §1, §2, §3
# type IV collagen (COLIV) = test: Semi-quantitative determination of type IV collagen by immunofluorescence (confocal microscopy); conditions: 120 H; duplicate (one row per replicate); Inositol 0.5%, Inositol + Arginine 0.25% + 0.25%
structure (smiles),measurement,setting,value
O[C@H]1[C@H](O)[C@@H](O)[C@H](O)[C@@H](O)[C@H]1O [Inositol],morphological qualitative evaluation of micro-tissues (H&E),[1]; T2 (24H),more compact lamellar structure
same,morphological qualitative evaluation of micro-tissues (H&E),"[1]; T6 (120H), Cyclosporin A 10 ng/mL",more compact lamellar structure
same,follicular CK6 expression / proto-hair structure and coloring,Cytokeratin 6 (CK6),not different from those shown by the samples treated with Cyclosporin A
same,semi-quantitative analysis of COLIV,type IV collagen (COLIV),69 and 94

# Reference: patent EP3538062B1, “ASSOCIATION CONSISTING OF INOSITOL AND ARGININE FOR MAINTAINING HOMEOSTASIS OF THE HAIR AND SCALP” (Unifarco S.p.A., priority 2016, dated 2018)
